According to ChEMBL document CHEMBL1201862, “PubChem BioAssay data set” (2004):
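In this assay, cells in 96-well plates receive the compound at five concentrations for 48 hours. Endpoints are linearly interpolated between the surrounding concentrations. GI50: concentration for 50% inhibition of growth.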 The source made the active and inactive calls. No stated cut-off is given here; in the data, active = GI50 up to about 1.1 µM and inactive = higher.

What was measured:
Experiment in all cases: NCI-60 cell line screen, 48 h
U-251 = test system: U-251
SNB-19 = test system: SNB-19
TK-10 = test system: TK-10
HL-60 = test system: HL-60
NCI-H23 = test system: NCI-H23
A549 = test system: A549
UACC-62 = test system: UACC-62
SF-295 = test system: SF-295
KM12 = test system: KM12
LXFL 529 = test system: LXFL 529
SN12C = test system: SN12C
Hs-578T = test system: Hs-578T
HCT-15 = test system: HCT-15
T47D = test system: T47D
NCI/ADR-RES = test system: NCI/ADR-RES
MDA-MB-435 = test system: MDA-MB-435
HCT-116 = test system: HCT-116
SF-539 = test system: SF-539

| SMILES | GI50 (U-251) | GI50 (SNB-19) | GI50 (TK-10) | GI50 (HL-60) | GI50 (NCI-H23) | GI50 (A549) | GI50 (UACC-62) | GI50 (SF-295) | GI50 (KM12) | GI50 (LXFL 529) | GI50 (SN12C) | GI50 (Hs-578T) | GI50 (HCT-15) | GI50 (T47D) | GI50 (NCI/ADR-RES) | GI50 (MDA-MB-435) | GI50 (HCT-116) | GI50 (SF-539) |
| --- | --- | --- | --- | --- | --- | --- | --- | --- | --- | --- | --- | --- | --- | --- | --- | --- | --- | --- |
| COc1cccc([C@@]2(O)c3c(ccc(O)c3OC)[C@H]2OC)c1OC | 51.4 µM (inactive) | 74 µM (inactive) | 31.1 µM (inactive) | 19.3 µM (inactive) | 43.9 µM (inactive) | 37 µM (inactive) | > 10 µM (inactive) | 57.8 µM (inactive) | 24.9 µM (inactive) | 19.6 µM (inactive) | 62.1 µM (inactive) | – | – | – | – | – | – | – |
| Cc1cn(CCCCCOC(=O)NC(CCCNC(N)=O)C(=O)O)c(=O)[nH]c1=O (stereo not drawn) | > 100 µM (inactive) | > 100 µM (inactive) | > 100 µM (inactive) | > 100 µM (inactive) | > 100 µM (inactive) | > 100 µM (inactive) | > 100 µM (inactive) | > 100 µM (inactive) | > 100 µM (inactive) | – | > 100 µM (inactive) | > 100 µM (inactive) | > 100 µM | > 100 µM (inactive) | > 100 µM (inactive) | > 100 µM (inactive) | > 100 µM (inactive) | > 100 µM (inactive) |
| CN(C)CCNS(=O)(=O)N(C)C | > 100 µM (inactive) | > 100 µM (inactive) | > 100 µM (inactive) | > 100 µM (inactive) | > 100 µM (inactive) | > 100 µM (inactive) | > 100 µM (inactive) | > 100 µM (inactive) | > 100 µM (inactive) | – | > 100 µM (inactive) | > 100 µM (inactive) | > 100 µM | > 100 µM (inactive) | > 100 µM (inactive) | > 100 µM (inactive) | > 100 µM (inactive) | > 100 µM (inactive) |
| CSc1nnc(SCc2nn3c(=O)cc(C)nc3s2)s1 | > 100 µM (inactive) | > 100 µM (inactive) | > 100 µM (inactive) | > 100 µM (inactive) | > 100 µM (inactive) | > 100 µM (inactive) | > 100 µM (inactive) | > 100 µM (inactive) | > 100 µM (inactive) | – | > 100 µM (inactive) | > 100 µM (inactive) | > 100 µM | > 100 µM (inactive) | > 100 µM (inactive) | > 100 µM (inactive) | > 100 µM (inactive) | > 100 µM (inactive) |
| CCOC(=O)C(C(=O)OCC)=C1NC2(c3ccccc3Nc3ccc(C)cc32)C(C#N)S1 (stereo not drawn) | 5.57 µM (inactive) | 6.58 µM (inactive) | 8.47 µM (inactive) | 13.1 µM (inactive) | 3.56 µM (inactive) | 3.01 µM (inactive) | 9.48 µM (inactive) | 9.59 µM (inactive) | 4.43 µM (inactive) | – | 3.24 µM (inactive) | 14.2 µM (inactive) | 6 µM | 4.39 µM (inactive) | 5.2 µM (inactive) | 5.65 µM (inactive) | 5.58 µM (inactive) | 3.72 µM (inactive) |
| ClCc1nc2cc(Cl)ccc2o1 | 3.15 µM (inactive) | 7.48 µM (inactive) | 2.83 µM (inactive) | 2.49 µM (inactive) | 8.99 µM (inactive) | 17 µM (inactive) | 8.15 µM (inactive) | 20.3 µM (inactive) | 12.3 µM (inactive) | – | 6.53 µM (inactive) | 13.7 µM (inactive) | 3.39 µM | 2.44 µM (inactive) | 20.3 µM (inactive) | 2.6 µM (inactive) | 6.97 µM (inactive) | 5.51 µM (inactive) |
| O=C(O)CS(=O)(=O)C(c1ccccc1)c1ccccc1 | > 100 µM (inactive) | > 100 µM (inactive) | > 100 µM (inactive) | > 100 µM (inactive) | > 100 µM (inactive) | > 100 µM (inactive) | > 100 µM (inactive) | > 100 µM (inactive) | > 100 µM (inactive) | – | > 100 µM (inactive) | > 100 µM (inactive) | > 100 µM | > 100 µM (inactive) | > 100 µM (inactive) | > 100 µM (inactive) | > 100 µM (inactive) | > 100 µM (inactive) |
| COc1cccc(C2c3cc4c(cc3OC(Nc3ccccc3)C2C)OCO4)c1O (stereo not drawn) | 5.7 µM (inactive) | 15.2 µM (inactive) | 15.8 µM (inactive) | 9.93 µM (inactive) | 8.26 µM (inactive) | 4.95 µM (inactive) | 9.02 µM (inactive) | 5.25 µM (inactive) | 4.63 µM (inactive) | – | 8.83 µM (inactive) | 5.81 µM (inactive) | 5.62 µM | 12.7 µM (inactive) | 7.5 µM (inactive) | 2.15 µM (inactive) | 7.6 µM (inactive) | 4.07 µM (inactive) |
| COc1ccc2c(c1OC)C(C(Cl)(Cl)Cl)N1CCc3cc4c(cc3C1=C2)OCO4 (stereo not drawn) | 3.69 µM (inactive) | 5.82 µM (inactive) | 27 µM (inactive) | 15.2 µM (inactive) | 12.9 µM (inactive) | 35.6 µM (inactive) | 11.8 µM (inactive) | 9.31 µM (inactive) | 7.6 µM (inactive) | – | 13.1 µM (inactive) | 18.4 µM (inactive) | 33.3 µM | 10.8 µM (inactive) | 44.6 µM (inactive) | 11.1 µM (inactive) | 10.6 µM (inactive) | 35 µM (inactive) |
| C=C[C@H]1CN2CC[C@H]1C[C@@H]2[C@@H](O)c1ccnc2ccccc12 [CINCHONINE] | > 100 µM (inactive) | > 100 µM (inactive) | > 100 µM (inactive) | > 100 µM (inactive) | > 100 µM (inactive) | > 100 µM (inactive) | > 100 µM (inactive) | > 100 µM (inactive) | > 100 µM (inactive) | – | > 100 µM (inactive) | 1.26 µM (inactive) | > 100 µM | > 100 µM (inactive) | > 100 µM (inactive) | > 100 µM (inactive) | > 100 µM (inactive) | > 100 µM (inactive) |
| O=C(N/N=C(COc1ccc(Cl)cc1)\N=C\c1cccnc1)c1ccncc1 | > 100 µM (inactive) | > 100 µM (inactive) | > 100 µM (inactive) | > 100 µM (inactive) | > 100 µM (inactive) | > 100 µM (inactive) | 69 µM (inactive) | > 100 µM (inactive) | 71 µM (inactive) | – | > 100 µM (inactive) | 23.7 µM (inactive) | 85.9 µM | > 100 µM (inactive) | 57.4 µM (inactive) | 26.3 µM (inactive) | > 100 µM (inactive) | 57.3 µM (inactive) |
| COC1CC(OC2C(C)OC(OC3C(C)OC(OC4C(C)OC(O[C@H]5CC[C@@]6(C)C(=CC[C@]7(O)[C@@H]6C[C@@H](OC(C)=O)[C@@]6(C)[C@]7(O)CC[C@@]6(O)C(C)=O)C5)CC4OC)CC3OC)CC2OC)OC(C)C1O (stereo partly drawn) | > 25 µM (inactive) | > 25 µM (inactive) | > 25 µM (inactive) | > 25 µM (inactive) | > 25 µM (inactive) | > 25 µM (inactive) | > 25 µM (inactive) | > 25 µM (inactive) | > 25 µM (inactive) | – | > 25 µM (inactive) | > 25 µM (inactive) | > 25 µM | > 25 µM (inactive) | > 25 µM (inactive) | > 25 µM (inactive) | > 25 µM (inactive) | > 25 µM (inactive) |
